Among the test systems are EKVX NSCLC; CAKI-1 renal; OVCAR-8 ovarian; HT29 colon; PC-3 prostate; CCRF-CEM leukemia; HS 578T breast; LOX IMVI melanoma; M14 melanoma; SK-MEL-28 melanoma; NCI/ADR-RES ovarian; DU-145 prostate; SF-295 CNS.
Holding throughout (test): NCI-60 cell line screen, 48 h

SMILES strings stand for the structures.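 Dose response: 5 concentrations. Exposure: 48 h. Format: 96-well plates. Endpoint: linear interpolation; highest concentration if not reached. TGI marks complete inhibition of growth.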

Take `O=C1C(Cl)C2(CC(/C=C/c3ccccc3)=NN2c2cccc(S(=O)(=O)O)c2)N1c1nc2ccccc2s1` (stereo not given): the TGI turned out to be 41 µM with EKVX NSCLC; 22.6 µM in the experiment with CAKI-1 renal; 25 µM with OVCAR-8 ovarian; 37.2 µM in the experiment with HT29 colon; 34.4 µM in the experiment on PC-3 prostate; 32.4 µM with CCRF-CEM leukemia. For the same compound, the TGI in the experiment with HS 578T breast was > 100 µM; with LOX IMVI melanoma, 13 µM; in the experiment on M14 melanoma it was 36 µM; in the experiment with SK-MEL-28 melanoma, > 100 µM; in the experiment on NCI/ADR-RES ovarian it was > 100 µM.
Take `COc1cc(O)c2c(=O)c(O)c(-c3ccc(O)c(OC)c3)oc2c1`: the TGI in the experiment on EKVX NSCLC, in the experiment on CAKI-1 renal, with DU-145 prostate, in the experiment with OVCAR-8 ovarian, with HT29 colon and in the experiment with PC-3 prostate was > 100 µM in each case. Further, the TGI with CCRF-CEM leukemia is > 21.9 µM; in the experiment with LOX IMVI melanoma, > 100 µM; in the experiment with M14 melanoma, > 100 µM; with NCI/ADR-RES ovarian, > 100 µM; in the experiment with SF-295 CNS, > 100 µM.
Take `C/C=C/C#CC#C/C=C/C=C/C(O)CCO` (stereo not given): the TGI in the experiment on EKVX NSCLC, in the experiment with CAKI-1 renal, with OVCAR-8 ovarian, in the experiment with HT29 colon, in the experiment on CCRF-CEM leukemia and with LOX IMVI melanoma was > 23.1 µM throughout. Besides, the TGI in the experiment on M14 melanoma, in the experiment with SK-MEL-28 melanoma and in the experiment with SF-295 CNS was > 23.1 µM in each case.
With `Nc1c([N+](=O)[O-])nc(Cl)c2nncn12`, the TGI with EKVX NSCLC was > 100 µM; in the experiment with CAKI-1 renal, > 100 µM; in the experiment with OVCAR-8 ovarian, > 100 µM; in the experiment on HT29 colon, > 100 µM; in the experiment with CCRF-CEM leukemia it was > 68.2 µM; with LOX IMVI melanoma it was > 61.1 µM. In addition, the TGI with M14 melanoma, in the experiment with SK-MEL-28 melanoma and with SF-295 CNS was > 100 µM each time.
`CC(C)(C)C1=CC(C)(n2[nH]c(=O)n(-c3ccccc3)c2=O)C=C(C(C)(C)C)C1=O`: the TGI in the experiment on CAKI-1 renal, in the experiment with DU-145 prostate, in the experiment with OVCAR-8 ovarian, in the experiment with HT29 colon, with PC-3 prostate and with HS 578T breast was > 100 µM each time. Also, the TGI with LOX IMVI melanoma, with SK-MEL-28 melanoma, in the experiment with NCI/ADR-RES ovarian and with SF-295 CNS was > 100 µM in each case.
On to `COc1c(=O)cc2cc[nH]c3ccn(C)c1c23`, for which the TGI in the experiment on EKVX NSCLC, with CAKI-1 renal, in the experiment on DU-145 prostate, with OVCAR-8 ovarian, in the experiment on PC-3 prostate and in the experiment on HS 578T breast was > 100 µM each time. In addition, the TGI in the experiment with LOX IMVI melanoma, in the experiment on M14 melanoma, in the experiment with SK-MEL-28 melanoma, with NCI/ADR-RES ovarian and in the experiment on SF-295 CNS was > 100 µM throughout.
`CN(C)C(=NCc1ccccc1)NC#N`: the TGI in the experiment with EKVX NSCLC, in the experiment with CAKI-1 renal, in the experiment on OVCAR-8 ovarian, in the experiment on HT29 colon, in the experiment on LOX IMVI melanoma and with M14 melanoma was > 100 µM in each case. The TGI in the experiment on SK-MEL-28 melanoma and with SF-295 CNS was > 100 µM each time.
On to `C/C(=C\CBr)CCC(Br)C(C)(C)Cl` (stereo not given), for which the TGI in the experiment with CAKI-1 renal, in the experiment on OVCAR-8 ovarian, in the experiment on HT29 colon, in the experiment on LOX IMVI melanoma, in the experiment on M14 melanoma and in the experiment on SK-MEL-28 melanoma was > 100 µM throughout. Besides, the TGI with SF-295 CNS was > 100 µM.
Turning to `NNC(=O)c1c(-c2cccnc2)cnc2ccccc12`, the TGI with EKVX NSCLC, in the experiment with CAKI-1 renal, in the experiment on DU-145 prostate, in the experiment with OVCAR-8 ovarian, in the experiment on HT29 colon and in the experiment with PC-3 prostate was > 100 µM in each case. The TGI in the experiment with CCRF-CEM leukemia, in the experiment with M14 melanoma, in the experiment on SK-MEL-28 melanoma, with NCI/ADR-RES ovarian and in the experiment with SF-295 CNS was > 100 µM in each case.
For the compound `O=C(/C=C/c1ccccc1)Oc1ccc(C(=O)/C=C/c2ccc(Cl)cc2)cc1`, the TGI in the experiment on EKVX NSCLC, with CAKI-1 renal, in the experiment on DU-145 prostate, with OVCAR-8 ovarian, in the experiment with HT29 colon and in the experiment with PC-3 prostate was > 100 µM each time. Further, the TGI in the experiment with CCRF-CEM leukemia, in the experiment on M14 melanoma, in the experiment with SK-MEL-28 melanoma, in the experiment on NCI/ADR-RES ovarian and in the experiment on SF-295 CNS was > 100 µM throughout.
For `COC(=O)[C@@]1(C(C)CC(=O)O)CCCCC1=O` (stereo not given in full), the TGI with EKVX NSCLC, in the experiment on CAKI-1 renal, in the experiment with OVCAR-8 ovarian, in the experiment with HT29 colon, in the experiment on CCRF-CEM leukemia and with LOX IMVI melanoma was > 100 µM in each case. Moreover, the TGI with M14 melanoma, with SK-MEL-28 melanoma and in the experiment on SF-295 CNS was > 100 µM in each case.
Regarding `O=C(CCC1C(=O)NC(=S)NC1=O)c1ccc2ccccc2c1`, the TGI with EKVX NSCLC, in the experiment on CAKI-1 renal, in the experiment with OVCAR-8 ovarian, in the experiment on HT29 colon, with CCRF-CEM leukemia and with LOX IMVI melanoma was > 100 µM throughout. Also, the TGI in the experiment on M14 melanoma, in the experiment on SK-MEL-28 melanoma and with SF-295 CNS was > 100 µM throughout.
On to `CCN(CC)c1ccc2c(c1)Oc1ccc(N(CC)CC)cc1C21Oc2ccccc2-c2c1c1ccccc1n2CC` (stereo not given), for which the TGI with EKVX NSCLC, with CAKI-1 renal, in the experiment on OVCAR-8 ovarian, in the experiment on HT29 colon, in the experiment on CCRF-CEM leukemia and in the experiment on LOX IMVI melanoma was > 100 µM in each case. Further, the TGI in the experiment on M14 melanoma, in the experiment on SK-MEL-28 melanoma and with SF-295 CNS was > 100 µM each time.
As for `CC(C)=CCN1CC(C)C(=O)Nc2ccccc21` (stereo not given), the TGI in the experiment on EKVX NSCLC, with CAKI-1 renal, in the experiment on DU-145 prostate, in the experiment on OVCAR-8 ovarian, in the experiment with HT29 colon and in the experiment on PC-3 prostate was > 100 µM throughout. The TGI in the experiment with CCRF-CEM leukemia, with HS 578T breast, in the experiment with LOX IMVI melanoma, in the experiment with M14 melanoma, in the experiment on SK-MEL-28 melanoma and in the experiment on SF-295 CNS was > 100 µM each time.
Turning to `CCc1c(C)c(C#N)c(=S)n(C2OC(COC(C)=O)C(OC(C)=O)C(OC(C)=O)C2OC(C)=O)c1-c1ccccc1` (stereo not given), the TGI in the experiment with EKVX NSCLC is > 100 µM; in the experiment with CAKI-1 renal, > 100 µM; in the experiment on DU-145 prostate it was > 31.6 µM; in the experiment with OVCAR-8 ovarian it was > 31.6 µM; in the experiment on HT29 colon, > 31.6 µM; in the experiment with CCRF-CEM leukemia, > 100 µM. For the same compound, the TGI in the experiment on HS 578T breast is 68.2 µM; with LOX IMVI melanoma, > 31.6 µM; in the experiment with M14 melanoma, > 31.6 µM; in the experiment with SK-MEL-28 melanoma it was > 31.6 µM; in the experiment with NCI/ADR-RES ovarian it was > 31.6 µM; in the experiment with SF-295 CNS, 27 µM.
Consider `COc1ccc(N2C(=O)/C(=C\c3cc(OC)c(OC)c(OC)c3)SC2c2ccccc2)cc1` (stereo not given), for which the TGI in the experiment with EKVX NSCLC, in the experiment on CAKI-1 renal, in the experiment with DU-145 prostate, in the experiment on OVCAR-8 ovarian, in the experiment on HT29 colon and in the experiment with CCRF-CEM leukemia was > 100 µM throughout. The TGI in the experiment with HS 578T breast, in the experiment with LOX IMVI melanoma, with M14 melanoma, in the experiment on SK-MEL-28 melanoma, in the experiment on NCI/ADR-RES ovarian and with SF-295 CNS was > 100 µM throughout.
For the compound `NS(=O)(=O)c1nnc(NS(=O)(=O)C(F)(F)F)s1`, the TGI in the experiment with EKVX NSCLC, in the experiment with CAKI-1 renal, in the experiment on DU-145 prostate, in the experiment on OVCAR-8 ovarian, with HT29 colon and in the experiment with PC-3 prostate was > 100 µM in each case. Moreover, the TGI in the experiment with M14 melanoma, in the experiment on SK-MEL-28 melanoma, with NCI/ADR-RES ovarian and with SF-295 CNS was > 100 µM throughout.
For the compound `O=c1[nH]c(=S)nc2nc3c4ccc[nH]c4c4ccccc4c3nc12`, the TGI in the experiment with EKVX NSCLC, with CAKI-1 renal, in the experiment with DU-145 prostate, in the experiment with OVCAR-8 ovarian, with HT29 colon and in the experiment with PC-3 prostate was > 100 µM each time. For the same compound, the TGI with CCRF-CEM leukemia, in the experiment with HS 578T breast, in the experiment with M14 melanoma, in the experiment on SK-MEL-28 melanoma and with SF-295 CNS was > 100 µM each time.
As to `CC1(C)CNCC(C)(OCc2ccccc2)C(=O)NC(C)(C)CNCC(C)(OCc2ccccc2)C(=O)N1` (stereo not given), the TGI in the experiment with EKVX NSCLC, in the experiment with DU-145 prostate, in the experiment on OVCAR-8 ovarian, with PC-3 prostate, in the experiment on CCRF-CEM leukemia and with HS 578T breast was > 10 µM each time. The TGI with LOX IMVI melanoma, in the experiment with M14 melanoma, with SK-MEL-28 melanoma and with SF-295 CNS was > 10 µM in each case.
With `CCOP1(=O)C=C(C)C(Cl)=C(C)C1` (stereo not given), the TGI in the experiment with EKVX NSCLC was > 100 µM; in the experiment on OVCAR-8 ovarian, > 100 µM; with HT29 colon, 79.6 µM; in the experiment on CCRF-CEM leukemia, 59.2 µM; with LOX IMVI melanoma, 50.4 µM; in the experiment on M14 melanoma it was 70.9 µM. In addition, the TGI was 56.7 µM in the experiment on SK-MEL-28 melanoma and > 100 µM in the experiment with SF-295 CNS.

(Values after PubChem BioAssay (NCI).)
